Experimental data taken from patent publication US8841269B2, “Polynucleotides for use in treating and diagnosing cancers” (Creighton University, priority 2010, dated 2014).
“Also recorded” adds a separate entry of the source.

What was measured:
[1] = test system: 3′ UTR of human ER-α gene; experiment: Luciferase reporter assay, ER-α 3′ UTR let-7 binding site in pMIR-REPORT; format: cell-based; conditions: MCF7 cells
Description: Luciferase assay. A fragment of the 3′ UTR of human ER-α gene, which contains the putative let-7 target sites, was synthesized (IDT technology). With attached SpeI and HindIII restriction sites, the fragments are 48 by long. The sense strand was 5′-[…] (SEQ ID NO:39) while the antisense strand was 5′-[…] (SEQ ID NO:40). The cloning and transfection followed previous protocol (Hu et al., 2009, J Immunol 183:1617-24). Sixty nanomolar let-7 mimics, anti-let-7 inhibitors, pre-miR negative control #1 (AM17110, Ambion), or anti-miR negative control #1 (AM17010, Ambion) were transfected together with a 0.25 μg luciferase construct and a 0.25 μg β-galactosidase plasmid, which were used as a normalization reference. After 24 hour post-transfection, the luciferase activity was measured in a Veritas Microplate Luminometer (Turner Biosystems). Every treatment had 3 replicates. The luciferase activity was expressed as a fraction of negative control.

ER-α = experiment: Immunoblot of ER-α after transfection in MCF7; format: cell-based, human; conditions: MCF7, mimics 60 nmol/L
Description: (§1) Immunoblot analysis. For Western blot in FFPE tissues, an established method was followed (Addis et al., 2009, Proteomics 9:3815-23). For MCF7 cell line, let-7 mimics and negative control miRNA (60 nmol/L), or let-7 inhibitors and anti-miR negative control (60 nmol/L) were transfected following the protocol of siPORT NeoFX Transfection Agent (Applied Biosystems), The Western blot procedure was described before (Zhang et al., 2010, J Proteome Res., 9(2):980-989). Antibody information is as follows: ER-α, RB-9016-P1, Thermoscientific; Cyclin D1, sc-8396, Santa Cruz; pS2, ab80782 was Abeam; β-Actin, sc-69879, Santa Cruz.

ER-α mRNA = experiment: Real-time PCR of ER-α mRNA after transfection in MCF7; format: cell-based, human; conditions: MCF7, mimics, after 6 days
Experimental: For real-time PCR on the expression of ER-α, total RNA was extracted using Trizol reagent (Invitrogen). One microgram RNA was used for cDNA synthesis following the protocol of SuperScript III First-Strand Synthesis System (Invitrogen). After 10 times dilution, 4 μL cDNA was used in a 20 μL reaction volume, which included 4 μL of 1.5 μM primers, 2 μL of 2 μM probes, and 10 μL master mix (Applied Biosystems). β-actin was the internal control. The oligos for ER-α are: forward primer, 5′-GCGGCCACGGACCAT (SEQ ID NO:17); reverse primer, 5′-[…] (SEQ ID NO:18); probe, 5′-FAM-[…]-TAMRA (SEQ ID NO:19).
(§2) For FFPE tissues, there was the same repeat number as in microarray; for cell lines, there were three biological repeats. Each sample had three technical repeats on the PCR plate. Real-time PCR was performed on an Applied Biosystems 7900HT real-time PCR instrument. PCR was initiated by two holds of 52° C. 2 min and 94° C. 10 min each, followed by 40 cycles of 15 s at 95° C. and 1 min at 60° C.

[2] = Real-time PCR quantification of mature let-7 after mimic transfection in MCF7; format: cell-based, human; conditions: MCF7, relative quantity against RNU48
Experimental: Quantitative real-time PCR. For miRNA quantification in FFPE tissues, total RNA was extracted as described above; for miRNA quantification in cell lines, total RNA was isolated using mirVana miRNA Isolation Kit (Ambion Inc.). cDNA was synthesized by using 100 ng total RNA in a reaction volume of 15 μL, by following the protocol of Taqman miRNA Reverse Transcription Kit (Applied Biosystems). After 15 times dilution, 9 μL cDNA was used for real-time PCR in a 20 μL reaction volume, including 10 μL of master mix and 1 μL Taqman probe (Applied Biosystems). This reaction system only detects mature miRNAs not pre-miRNAs. The level of each miRNA was expressed following the 2^−ΔΔCt or […] method using the small nuclear RNA, RNU48, as the internal reference.
as §2

cyclin D1 = experiment: Immunoblot of cyclin D1 after transfection in MCF7; format: cell-based, human; conditions: MCF7, mimics
Description: as §1

pS2 = experiment: Immunoblot of pS2 after transfection in MCF7; format: cell-based, human; conditions: MCF7, mimics
Description: as §1

[3] = test system: estrogen response element (ERE) construct; experiment: ERE luciferase assay (2 ERE-tk-Luc), genomic estrogen pathway in MCF7; format: cell-based, human
Experimental: For checking on the genomic estrogen pathway, 10^5 MCF7 cells were first seeded into each well on a 24-well plate and cultured in IMEM with 2.5% charcoal-stripped FBS for 2 days. Then the cells were transfected as described above except that the estrogen response element (ERE) construct (2 ERE-tk-Luc; obtained from Katarine Pettersson, Karolinska Institute, Stockholm) replaced the pMIR-REPORT plasmid for 1 day. After stimulation with 10 nmol/L E2 for 12 hours, luciferase activity was measured as described above.

MCF7 cells [4] = experiment: MTT cell proliferation assay in MCF7; format: cell-based, human
Experimental: (§3) MTT cell proliferation assay. MCF7 cells were transfected with let-7 mimics or negative controls (60 nmol/L) in normal growth medium for 1 day, or in medium with 2.5% charcoal-stripped FBS for 2 days to exhaust endogenous estrogen, following the protocol of siPORT NeoFX Transfection Agent (Applied Biosystems). For the experiment in normal growth medium, 10^4 cells in the volume of 100 μL were seeded in a 96-well plate for 12 hours and assay lasted for another 4 days. For experiments in E2 free medium, 1.5 10^4 cells were seeded in a 96-well plate for 12 hours and then exposed to 10 nmol/L E2, or not, for up to 4 days. For both experiments, each treatment had 12 replicates on the plate. The cells were then incubated in 0.83 mg/mL 3-[4,5-dimethylthiazol-2-yl]-2,5-diphenyltetrazolium bromide (MTT) in growth medium at 37° C. for 4 h and lysed in 100 μL of DMSO at room temperature for 15 min. The absorbance in each well was measured at 490 nm by an ELx800 Absorbance Microplate Reader (Biotek). Cell proliferation was normalized to day 0.

[5] = test system: ER-α negative MDA-MB-231 cell line; experiment: MTT cell proliferation assay in MDA-MB-231; format: cell-based, human; conditions: MDA-MB-231, DMEM with 10% FBS
Experimental: FIG. 10. The effects of let-7a, let-7b, and let-7i miRNAs on cell proliferation in ER-α negative MDA-MB-231 cell line. Cancer cell proliferation was monitored by MTT assays in the same way as in MCF7 cell line except MDA-MB-231 cells were grown in DMEM with 10% FBS.
as §3

MCF7 cells [6] = experiment: Annexin-V binding assay for apoptosis in MCF7; format: cell-based, human; conditions: MCF7, after either 3 days or 6 days
Experimental: Annexin-V binding assay for apoptosis. […] The staining followed the protocol of FITC Annexin V Apoptosis Detection Kit I (Cat #556547, BD Biosciences). Cell populations were analyzed with a BD FACSAria™ flow cytometer. Approximately 20,000 cells were counted for each sample.

let-7a: let-7a miRNA (mimic), 3′-UUGAUAUGUUGGAUGAUGGAGU-5′ (SEQ ID NO:7) (chemistry not given here; listed 3' to 5')
luciferase activity, ER-α binding site in 3′UTR of luciferase ([1]; 60 nmol/L mimics, vs negative control miRNA): decreased the luciferase activity; also recorded: significantly inhibited the luciferase activity
luciferase activity, mutated ER-α binding sequence ([1]; mutated sequence in 3′UTR of luciferase): abrogated the effects; also recorded: did not show inhibition
expression of ER-α (protein) (ER-α; after 2 days): significantly depressed the expression of ER-α
expression of ER-α (protein) (ER-α; after 6 days): modest effect
ER-α mRNA expression (ER-α mRNA): relieved
rank of forced expression throughout the time course [2]: lowest expression
expression of cyclin D1 (protein) (cyclin D1; after 2 days): significantly inhibited
protein expression of cyclin D1 (cyclin D1; after 6 days): affected neither
expression of pS2 (protein) (pS2; after 2 days): significantly inhibited
protein expression of pS2 (pS2; after 6 days): affected neither
ERE luciferase activity ([3]; MCF7, p2 ERE-tk-Luc, 10 nmol/L E2 12 hours, p<0.01): about 60 % of negative control
luciferase activity of the ERE construct ([3]; MCF7 cell line): inhibit the luciferase activity of the ERE construct
cell growth (MTT) with E2 (MCF7 cells [4]; MCF7, E2 free medium with addition of 10 nmol/L E2): least inhibition
cell growth (MTT) (MCF7 cells [4]; MCF7, E2 free medium with or without addition of 10 nmol/L E2 (FIG. 9B-D)): slightly inhibited
cell proliferation (MTT) (MCF7 cells [4]; MCF7, normal growth medium, 60 nmol/L): did not show a significant effect
cell growth (MTT) [5]: None of three miRNAs significantly inhibited cell growth
effect on apoptosis (MCF7 cells [6]): not significant
